Assay results: the supplement of paper PMC12137928
Counter-ions that a name gives are not always drawn.

Tested on: HCT116
Details: 72 h
Summary of the method: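 Four-parameter Hill fits gave IC50 and maximal efficacy. The data were CellTiter-Glo luminescence readings in HCT116 cells, normalized so that vehicle was 0% and positive control was -100%, with pattern correction afterwards.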

SMILES	IC50 cell viability (ICRF193 0 nM) [µM]	IC50 cell viability (ICRF193 200 nM) [µM]
CC1(C)S[C@@H]2[C@H](NC(=O)C(C(=O)O)c3ccccc3)C(=O)N2[C@H]1C(=O)O (stereo not given in full) [Carbenicillin disodium]	> 45.8	> 45.8
CN[C@@H]1[C@@H](O)[C@@H](O[C@@H]2[C@H](O)[C@H](O[C@H]3OC(CN)=CC[C@H]3N)[C@@H](N)C[C@H]2N)OC[C@]1(C)O [Pentisomicin]	> 45.8	> 45.8
CC(C)C[C@H](NC(=O)[C@@H](O)[C@H](N)Cc1ccccc1)C(=O)O [Ubenimex]	> 45.8	> 45.8
COCC1=C(C(=O)O)N2C(=O)[C@@H](NC(=O)/C(=N\OC)c3csc(N)n3)[C@H]2SC1 [CEFPODOXIME]	> 45.8	> 45.8
C/C=C\c1ccc(O)c(OC)c1 [Isoeugenol]	> 45.8	> 45.8
O[C@H]1[C@H](O)[C@@H](O)[C@H](O)[C@@H](O)[C@H]1O [myo-Inositol]	> 45.8	> 45.8
CCN1CC(CCN2CCOCC2)C(c2ccccc2)(c2ccccc2)C1=O (stereo not given) [Doxapram hydrochloride]	> 45.8	> 45.8
N[C@H](CO)C(=O)O [D-SERINE]	> 45.8	> 45.8
NC[C@H](O)c1ccc(O)c(O)c1 [Noradrenaline bitartrate monohydrate]	> 45.8	> 45.8
NC(=O)c1cc([N+](=O)[O-])cc([N+](=O)[O-])c1 [Nitromide]	> 45.8	> 45.8
O=C([O-])CC([S-])C(=O)[O-].[Au+].[Na+].[Na+] (stereo not given) [Sodium aurothiomalate(I)]	> 45.8	> 45.8
Cc1ccc(O)c([C@H](CCN(C(C)C)C(C)C)c2ccccc2)c1 [Tolterodine]	> 45.8	> 45.8
CN1CCN(c2c(F)cc3c(=O)c(C(=O)O)cn4c3c2OCN4C)CC1 [Marbofloxacin]	> 45.8	> 45.8
CCCCC(O)c1ccccc1 (stereo not given) [Fenipentol]	> 45.8	> 45.8
COc1ccnc(C[S+]([O-])c2nc3cc(OC(F)F)ccc3[nH]2)c1OC (stereo not given) [Pantoprazole]	> 45.8	> 45.8
CC(C)c1nc(N(C)S(C)(=O)=O)nc(-c2ccc(F)cc2)c1/C=C/[C@@H](O)C[C@@H](O)CC(=O)O [Rosuvastatin calcium (Crestor)]	> 45.8	> 45.8
CN[C@H]1C(=O)N[C@@H]2Cc3ccc(cc3)Oc3cc4cc(c3O[C@@H]3O[C@H](C(=O)O)[C@@H](O)[C@H](O)[C@H]3NC(=O)CCCCCCCCC(C)C)Oc3ccc(cc3Cl)[C@@H](O)[C@@H]3NC(=O)[C@H](NC(=O)[C@@H]4NC(=O)[C@@H](NC2=O)c2cc(cc(O)c2Cl)Oc2cc1ccc2O)c1ccc(O)c(c1)-c1c(O[C@H]2O[C@H](CO)[C@@H](O)[C@H](O)[C@@H]2O)cc(O)cc1[C@@H](C(=O)NCCCN(C)C)NC3=O [Dalbavancin]	> 45.8	> 45.8
Clc1ccc2c(c1)C(N1CCNCC1)=Nc1ccccc1O2 [Amoxapine]	> 45.8	> 45.8
O=C(Cn1cnnn1)N[C@@H]1C(=O)N2C(C(=O)O)=C(CSc3nncs3)CS[C@H]12 [Ceftezole sodium]	> 45.8	> 45.8
COc1ccc(Cl)cc1C(=O)NCCc1ccc(S(=O)(=O)NC(=O)NC2CCCCC2)cc1 [Glybenclamide]	> 45.8	> 45.8

SMILES	IC50 cell viability (ICRF193 0 nM) [µM]	IC50 cell viability (ICRF193 200 nM) [µM]
CN(C)/C=N/c1c(I)cc(I)c(CCC(=O)O)c1I [Ipodate sodium]	> 45.8	> 45.8
CCC(C(=O)OCCN1CCOC(c2ccccc2)C1C)c1ccccc1 (stereo not given) [Fenbutrazate]	> 45.8	> 45.8
Nc1cccc2c1CN(C1CCC(=O)NC1=O)C2=O (stereo not given) [Lenalidomide]	> 45.8	> 45.8
Cc1c(F)cc2c(=O)c(C(=O)O)cn3c2c1CCC3C (stereo not given) [Ibafloxacine]	> 45.8	> 45.8
C[C@H](CSC(=O)c1ccccc1)C(=O)N1C[C@@H](Sc2ccccc2)C[C@H]1C(=O)O [Zofenopril]	> 45.8	> 45.8
CC(C)NC(C)C [Diisopropylamine]	> 45.8	> 45.8
C(=C\c1ccncc1)/c1ccccc1 [4-Styrylpyridine]	> 45.8	> 45.8
CCC(=O)O[C@@H]1CC(=O)O[C@H](C)C/C=C/C=C/[C@H](OC(C)=O)[C@H](C)C[C@H](CC=O)[C@H](O[C@@H]2O[C@H](C)[C@@H](O[C@H]3C[C@@](C)(OC(C)=O)[C@@H](OC(=O)CC)[C@H](C)O3)[C@H](N(C)C)[C@H]2O)[C@H]1OC [Midecamycin Acetate]	> 45.8	> 45.8
OCCOc1ccc(/C(=C(/CCCl)c2ccccc2)c2ccccc2)cc1 [Ospemifene]	> 45.8	> 45.8
CCC1(CC)C(=O)NC(=O)N(C)C1=O [Metharbital]	> 45.8	> 45.8
CCCCCOc1ccc(C2SC(=O)NC2=O)cc1OCC (stereo not given) [Risarestat]	> 45.8	> 45.8
C[C@@H]1C/C=C/C=C/C=C/C=C/[C@H](O[C@@H]2O[C@H](C)[C@@H](O)[C@H](N)[C@@H]2O)C[C@@H]2O[C@](O)(C[C@@H](O)C[C@H]3O[C@@H]3/C=C/C(=O)O1)C[C@H](O)[C@H]2C(=O)O [Pimaricin]	> 45.8	> 45.8
COc1cccc(N(C)C(=S)Oc2ccc3c(c2)CCCC3)n1 [Liranaftate]	> 45.8	> 45.8
N[C@@H]1C[C@H]1c1ccccc1 [Tranylcypromine hydrochloride]	> 45.8	> 45.8
C[C@H]1C[C@@H]2[C@H]([C@@H](O)C[C@@]3(C)[C@H]2CC[C@]3(O)C(=O)COC(=O)CCC(=O)O)[C@@]2(C)C=CC(=O)C=C12	> 45.8	> 45.8
CO/N=C(\C(=O)N[C@@H]1C(=O)N2C(C(=O)[O-])=C(C[n+]3ccc(N)n3CCO)CS[C@H]12)c1csc(N)n1 [Cefoselis (sulfate)]	> 45.8	> 45.8
C=C(c1ccc(C(=O)O)cc1)c1cc2c(cc1C)C(C)(C)CCC2(C)C [Bexarotene]	> 45.8	> 45.8
CCOc1ccccc1C(N)=O [2-Ethoxybenzamide]	> 45.8	> 45.8
CC(C)Cc1ccc(CC(=O)O)cc1 [Ibufenac]	> 45.8	> 45.8
Cc1cn([C@H]2C=C[C@@H](CO)O2)c(=O)[nH]c1=O [Stavudine]	> 45.8	> 45.8

SMILES	IC50 cell viability (ICRF193 0 nM) [µM]	IC50 cell viability (ICRF193 200 nM) [µM]
CCCCCC1Nc2cc(C(F)(F)F)c(S(N)(=O)=O)cc2S(=O)(=O)N1 (stereo not given) [Penflutizide]	> 45.8	> 45.8
CN1C[C@@H]2C[C@H]1CN2c1cc2c(cc1F)c(=O)c(C(=O)O)cn2C1CC1 [Danofloxacin]	> 45.8	> 45.8
Clc1ccc(C(OCCN2CCCCC2)c2ccccc2)cc1 (stereo not given) [Cloperastine hydrochloride]	> 45.8	> 45.8
O=C(O)c1cccnc1 [Niacin]	> 45.8	> 45.8
Nc1nc2c(ncn2COCCO)c(=O)[nH]1 [Aciclovir]	> 45.8	> 45.8
CC(=O)N[C@@H](CS)C(=O)O [Acetylcysteine]	> 45.8	> 45.8
CNC(=C[N+](=O)[O-])NCCSCc1ccc(CN(C)C)o1 [Ranitidine]	> 45.8	> 45.8
O=C(CCCCCCCCC#CI)Oc1ccccc1 [Phenyl 11-iodo-10-undecynoate]	> 45.8	> 45.8
OC[C@H]1O[C@@H](OCCc2ccc(O)cc2)[C@H](O)[C@@H](O)[C@@H]1O [Salidroside]	> 45.8	> 45.8
CC1=C(C(=O)O)N2C(=O)[C@@H](NC(=O)[C@H](N)c3ccc(O)cc3)[C@H]2SC1 [Cefadroxil]	> 45.8	> 45.8
CC/C=C\C/C=C\C/C=C\CCCCCCCC(=O)O [Linolenic acid]	> 45.8	> 45.8
CCC(C(=O)NC(=O)NC(C)=O)c1ccccc1 (stereo not given) [Acetylpheneturide]	> 45.8	> 45.8
O=C(CCOCCOCCOCCOCCC(=O)Nc1c(I)cc(I)c(C(=O)O)c1I)Nc1c(I)cc(I)c(C(=O)O)c1I [Iodoxamic Acid]	> 45.8	> 45.8
O=c1[nH]c(=O)c2[nH]c(O)nc2[nH]1 [Sodium urate]	> 45.8	> 45.8
CCCCNc1ccc(C(=O)OCCN(C)C)cc1 [Tetracaine hydrochloride]	> 45.8	> 45.8
O=C(C[S+]([O-])Cc1ccco1)NC/C=C\COc1cc(CN2CCCCC2)ccn1 (stereo not given) [Lafutidine]	> 45.8	> 45.8
O=C([O-])C(O)[C@H](O)[C@@H](O)[C@H](O)[C@H](O)CO.O=C([O-])C(O)[C@H](O)[C@@H](O)[C@H](O)[C@H](O)CO.[Ca+2] (stereo not given in full) [CALCIUM GLUCEPTATE]	> 45.8	> 45.8
O=C(O)c1cc(/N=N/c2ccc(O)c(C(=O)O)c2)ccc1O [Olsalazine sodium]	> 45.8	> 45.8
C[C@H](CCC(=O)O)[C@H]1CC[C@H]2[C@@H]3[C@H](O)C[C@@H]4C[C@H](O)CC[C@]4(C)[C@H]3C[C@H](O)[C@]12C [Cholic Acid]	> 45.8	> 45.8
CN1CC(=O)N2[C@H](c3ccc4c(c3)OCO4)c3[nH]c4ccccc4c3C[C@@H]2C1=O [Tadalafil]	> 45.8	> 45.8
